Data on two compounds can be found in article PMC10098121, “Amphipathic barbiturates as marine product mimics with cytolytic and immunogenic effects on head and neck squamous cell carcinoma cell lines” (Frontiers in Pharmacology, 2023).

Read-outs that look alike come from different tables or passages of the source.

The test system of assay [1] is seven HNSCC cell lines and one normal oral fibroblast cell line (NOF). Kind of assay: High throughput drug screening, statements on the whole panel. The class given is cell-based, human. The following applies: DSS. As for the experimental part:
(§1) The MPMs were screened against a panel of […] different cell lines (HSC-3, UT-SCC-8, UT-SCC-24A, UT-SCC-24B, UT-SCC-42A, UT-SCC-42B and NOF) at the High Throughput Biomedicine Unit (HTB) at the Institute for Molecular Medicine Finland (FIMM). On day 1, black-walled 384-well plates were coated with 5 µl diluted myogel (0.5 mg/ml) per well using an automated reagent dispenser (MultiFlo FX, BioTek, Winooski, VT, United States). On day 2, 500 cells per well were seeded in 20 µl of complete media using the MultiFlo FX (BioTek), and the cells were left to adhere overnight. On day 3, the MPMs, cisplatin, DMSO and Benzethonium chloride were added to the cells using an automatic liquid handler (Echo 550, Labcyte Inc., San Jose, CA, United States). Cisplatin and the MPMs were added to yield five different concentrations in a ten-fold dilution series ranging from 10 to 100,000 nM. Each concentration was tested in triplicate wells. DMSO (0.1%) and benzethonium chloride (100 µM) served as negative and positive control, respectively. Three hours later, some of the plates were irradiated with 2 Gy in a gamma irradiator (OB29/4, STS, Braunschweig, Germany). All plates were taken to the irradiation room to ensure similar handling of the plates. 72 h later, the plates were cooled to room temperature before 25 µl of CellTiter-Glo 2.0 reagent (Promega, Madison, WI, USA) was added to each well using the MultiFlo FX (BioTek). Next, the plates were centrifuged for 5 min at 1,000 rpm before the luminescence signal was measured with the PHERAstar FS HT reader (BMG LABTECH GmbH, Ortenberg, Germany). The raw data was analyzed with the Breeze software (https://breeze.fmm.fi), which normalized the luminescence signal from treated cells against the signal from negative and positive control cells to calculate the percentage of inhibition and generate dose-response curves, which were then used to calculate drug sensitivity scores (DSS). The DSS is a parameter which combines the IC50, the slope of the dose-response curve, and the minimum and maximum responses into a single metric, as previously described ([Yadav et al., 2014]). Quality control was performed by calculation of the Z′-factor, which was >0.7 for all cell lines, indicating high quality of the assay ([Zhang et al., 1999]).

The test system of the next assay is HSC-3. Kind of assay: High throughput drug screening (CellTiter-Glo, DSS). The settings on record: for drug sensitivity score (DSS): HSC-3, 72 h, 10-100,000 nM, myogel, non-irradiated; for delta DSS (ΔDSS): HSC-3, DSS irradiated (2 Gy) minus DSS non-irradiated, >5 synergy, <–5 antagonism. The class given is cell-based, human. The procedure: as §1
For the next assay, the system named is UT-SCC-8. The description is as above. The class given is cell-based, human. The following applies: for drug sensitivity score (DSS): UT-SCC-8, 72 h, 10-100,000 nM, myogel, non-irradiated; for delta DSS (ΔDSS): UT-SCC-8, DSS irradiated (2 Gy) minus DSS non-irradiated, >5 synergy, <–5 antagonism. As for the experimental part: as §1
The next assay deals with UT-SCC-24B. The assay is described as above. The settings on record: for drug sensitivity score (DSS): 72 h, 10-100,000 nM, myogel, non-irradiated; for delta DSS (ΔDSS): DSS irradiated (2 Gy) minus DSS non-irradiated, >5 synergy, <–5 antagonism. The assay is classed as cell-based, human. As for the experimental part: as §1
The next assay concerns UT-SCC-42A. The description is as above. The assay is classed as cell-based, human. The settings on record: for drug sensitivity score (DSS): 72 h, 10-100,000 nM, myogel, non-irradiated; for delta DSS (ΔDSS): DSS irradiated (2 Gy) minus DSS non-irradiated, >5 synergy, <–5 antagonism. The procedure: as §1
The test system of assay [2] is NOF (normal oral fibroblasts). Described as above. The class given is cell-based, human. The settings on record: for drug sensitivity score (DSS): 72 h, 10-100,000 nM, myogel, non-irradiated; for delta DSS (ΔDSS): DSS irradiated (2 Gy) minus DSS non-irradiated, >5 synergy, <–5 antagonism. As for the experimental part: as §1
The next assay concerns UT-SCC-24A. Described as above. The assay is classed as cell-based, human. The following applies: for drug sensitivity score (DSS): 72 h, 10-100,000 nM, myogel, non-irradiated; for delta DSS (ΔDSS): DSS irradiated (2 Gy) minus DSS non-irradiated, >5 synergy, <–5 antagonism. As for the experimental part:
as §1

A further assay concerns UT-SCC-42B. Described as above. The assay is classed as cell-based, human. The following applies: for drug sensitivity score (DSS): 72 h, 10-100,000 nM, myogel, non-irradiated; for delta DSS (ΔDSS): DSS irradiated (2 Gy) minus DSS non-irradiated, >5 synergy, <–5 antagonism. The procedure:
as §1

The test system of another assay is UT-SCC-106A. The assay is described as above. The settings on record: for drug sensitivity score (DSS): 72 h, 10-100,000 nM, myogel, non-irradiated; for delta DSS (ΔDSS): DSS irradiated (2 Gy) minus DSS non-irradiated, >5 synergy, <–5 antagonism. The class given is cell-based, human. As for the experimental part:
as §1

Assay [3] relates to human red blood cells. More on the design: method as in von Hofsten et al., 2022. The settings on record: highest concentration 500 μM; ref von Hofsten et al., 2022; read-out: EC50 hemolytic activity against human red blood cells; cited from earlier work.
The test system of assay [4] is human red blood cells. Kind of assay: Hemolysis assay. The assay is classed as cell-based. The following applies: Homo sapiens, Erythrocyte; 1 h, 37°C; highest concentration tested 500 μM; average of three experiments; read-out: EC50 hemolytic activity against human red blood cells. The procedure: The hemolytic effect of the MPMs was determined using a hemolysis assay as previously described ([Paulsen et al., 2021]). Briefly, hemolysis was determined using a heparinized fraction (10 IU/mL) of freshly drawn blood. The blood collected in ethylenediaminetetraacetic acid-containing test tubes (Vacutest, KIMA, Arzergrande, Italy) was used for the determination of the hematocrit (hct). The heparinized blood was washed 3 × with pre-warmed phosphate-buffered saline (PBS) and adjusted to a final hct of 4%. MPMs in DMSO (50 mM) were added to a 96-well polypropylene V-bottom plate (NUNC, Fisher Scientific, Oslo, Norway) and serially diluted. The test concentration range was 4–500 μM with DMSO contents ≤1%. A solution of 1% triton X-100 was used as a positive control for 100% hemolysis. As a negative control, a solution of 1% DMSO in PBS was included. Red blood cells (1% v/v final concentration) were added to the well plate and incubated at 37°C and 800 rpm for 1 h. After centrifugation (5 min, 3000 g), 100 μL from each well was transferred to a 96-well flat-bottomed microtiter plate, and absorbance was measured at 545 nm with a microplate reader (VersaMaxTM, Molecular Devices, Sunnyvale, CA, United States). The percentage of hemolysis was calculated as the ratio of the absorbance in the MPM treated and surfactant-treated samples, corrected for the PBS background. Three independent experiments were performed, and EC50 values are presented as averages.

The subject of assay [5] is Escherichia coli ATCC 25922. Description: Bacterial minimum inhibitory concentration (broth microdilution). The following applies: ATCC25922; Escherichia coli ATCC 25922, 48 h, 35 °C, di-TFA salts. The class given is cell-based. As for the experimental part:
(§2) Method for determination of bacterial minimum inhibitory concentration (MIC) Stock solutions of the water-soluble compounds were prepared by dissolving them in ultrapure water (Milli-Q H2O, Millipore, MA, USA). The less water-soluble compounds were first dissolved in 25 - 50 µL 100% DMSO before further dilution with ultrapure water. The DMSO concentration was always less than 1% in the working concentration of each compound. A modified broth microdilution susceptibility test based on the CLSI M07-A9 protocol, [2] was used to determine minimal inhibitory concentrations (MIC). Briefly, the test compounds were two-fold diluted with ultrapure water in polystyrene 96-well flat-bottom microplates (NUNC, Roskilde, Denmark). The bacterial inoculum was diluted to 2.5 - 3 x 10^4 cells/mL in Mueller-Hinton broth (MHB, Difco Laboratories, USA) and added to the different diluted compounds in a ratio of 1:1. Positive control (ciprofloxacin, Sigma-Aldrich, USA), negative control (bacteria + water), and media control (media + water) were included in each experiment. The microplates were incubated for 48 h at 35 °C in an EnVision microplate reader (PerkinElmer, Waltham, MA, USA). The lowest concentration of compounds that caused no bacterial growth, as determined by optical density (OD600) measurements, was defined as the MIC value. All compounds were tested in 3 technical replicates.
(§3) Supplementary Video S1. HSC-3 cells were seeded at 100% confluence and a standard scratch wound migration assay was performed. The cells were imaged every 2 hours for 24 hours. The video

The subject of assay [6] is Pseudomonas aeruginosa ATCC 27853. The description is as above. The assay is classed as cell-based. The settings on record: ATCC27853; Pseudomonas aeruginosa ATCC 27853, 48 h, 35 °C, di-TFA salts. As for the experimental part:
as §2, §3

The subject of assay [7] is Staphylococcus aureus ATCC 9144. The assay is described as above. The class given is cell-based. The settings on record: ATCC9144; Staphylococcus aureus ATCC 9144, 48 h, 35 °C, di-TFA salts. As for the experimental part: as §2, §3
The subject of a further assay is Bacillus subtilis 168. The assay is described as above. The settings on record: Bacillus subtilis 168, 48 h, 35 °C, di-TFA salts. The class given is cell-based. The procedure: as §2, §3

Take `NCCCCN1C(=O)N(CCCCN)C(=O)C(CCCc2ccccc2)(CCCc2ccccc2)C1=O` [MPM-1]: the “selectivity for cancer cell lines over NOFs (in words)” value in [1] (cancer lines and NOFs cultured in different media) is given as “slight tendency towards selectivity for the NOFs, which was especially prominent for MPM-1”. The “drug sensitivity score (DSS)” value in the assay with HSC-3 is reported as 8,8; in the assay with UT-SCC-8, 10; in the assay on UT-SCC-24B, 9,7; with UT-SCC-42A, 8,4; in assay [2] it was 17,1; in the assay with UT-SCC-24A it was 6,9. The “drug sensitivity score (DSS)” value is recorded as 7,4 in the assay with UT-SCC-42B and 10,3 in the assay on UT-SCC-106A. The “delta DSS (ΔDSS)” value in the assay on HSC-3 is listed as 0; in the assay on UT-SCC-8, -0,8; with UT-SCC-24B it was 0,5; in the assay with UT-SCC-42A, -0,8; in [2], 0,4; with UT-SCC-24A it was -1,1. For the same compound, the figures for the “delta DSS (ΔDSS)” value in the assay on UT-SCC-42B and in the assay on UT-SCC-106A were 0,6 and 0,3, respectively. Moreover, in the assay on human red blood cells [3], the EC50 (usually the concentration at which the effect is half-maximal) is more than 500 µM.

Regarding `C[N+](C)(C)CCCCN1C(=O)N(CCCC[N+](C)(C)C)C(=O)C(CCCc2ccccc2)(CCCc2ccccc2)C1=O` [MPM-4:3], in assay [1] (72 h), the “potency / effect on viability over the cell line panel (in words)” value is “completely inactive”. Also, the EC50 in the assay with human red blood cells [4] is more than 500 µM. The MIC (in general, the smallest concentration in the dilution series that meets the test's criterion for growth inhibition) in assay [5] was 64 µg/mL; in assay [6] it was more than 64 µg/mL; in assay [7] it was 64 µg/mL; in the assay on Bacillus subtilis 168 it was more than 64 µg/mL. Further, the “drug sensitivity score (DSS)” value in the assay on HSC-3 is 0; with UT-SCC-8 it was 0; in the assay with UT-SCC-24B, 0; with UT-SCC-42A, 0,1; in assay [2] it was 2,2; with UT-SCC-24A it was 0. The “drug sensitivity score (DSS)” value in the assay with UT-SCC-42B is listed as 0,1; in the assay with UT-SCC-106A, 0,5. The “delta DSS (ΔDSS)” value with HSC-3 is reported as 0; with UT-SCC-8 it was 0; with UT-SCC-24B, 0,1; in the assay on UT-SCC-42A it was 0; in [2] it was -1,4; in the assay with UT-SCC-24A it was 0. The “delta DSS (ΔDSS)” value in the assay with UT-SCC-42B is listed as -0,1; in the assay on UT-SCC-106A, -0,5.
